A word on the viability, T/C: it is the result in the treated group divided by that in the control group, in per cent. Broadly, the IC50 is the concentration needed to halve the response being measured.

This assay concerns NCI-H196 complex spheroid viability. Kind of assay: Anticancer human tumor NCI-H196 cell line growth inhibition [LSD1].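 On all read-outs here: spheroids exposed to agents for 7 days before readout.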 The conditions noted are these: for viability, T/C: stronger effect = lower value. An excerpt:
Multicellular complex tumor spheroid response to LSD1 Inhibitor Iadademstat in combination with a variety of drugs and investigational agents in selected tumor cell lines
The current study was undertaken to assess response to LSD1 inhibitors in combination with standard-of-care drugs and investigational agents in solid tumor complex spheroid models as well as in the K-562 leukemia. Complex spheroids include a stromal component modeled by human endothelial cells (HUVEC) and fibroblasts modeled by human mesenchymal stem cells (MSCs). The concentration ranges selected for each drug and investigational agent were based upon clinically achievable concentrations if the clinical Cmax of the agent was known.
Compounds. The drugs and investigational agents used in this study are listed on Table 1. All of the agents used, including staurosporine (NSC755774) and gemcitabine (NSC613327), were obtained from the Developmental Therapeutics Program, NCI. FDA-approved anticancer drugs are available from the NCI at http://dtp.nci.nih.gov/branches/dscb/oncology_drugset_explanation.html. Drugs and investigational agents were >95% pure by proton nuclear magnetic resonance (NMR) and liquid chromatography/mass spectrometry (LC/MS). Stock solutions were prepared at 400x in DMSO, stored at -70 degrees C, and diluted in fresh medium prior to their use. The final concentration of DMSO in cell culture wells never exceeded 0.25% (v/v). The FDA-approved anticancer drug set is available from the Developmental Therapeutics Program at https://dtp.cancer.gov/organization/dscb/obtaining/available_plates.htm. All drugs and investigational agents were tested over a range starting from a high concentration at or near the clinical Cmax and decreasing in half-log increments. If the clinical Cmax for an agent had not been determined, the highest concentration tested was 10 microM.
Cell Lines. The patient-derived cancer cell (PDC) lines: 292921-168-R-J2-PDC, K24384-001-R-PDC, and 521955-158-R2-J5-PDC pancreatic carcinomas, 556581-035-R-J1 ovarian carcinoma, 324938-238-R-J1-PDC, 855422-203-R-J1-PDC and 883617-216-R-J1-PDC urothelial bladder carcinomas, 743489-274-T-PDC renal cell carcinoma, 138582-R-J1 Merkel cell tumor, K60290-347-R-J1 and K57222-313-R-J1-PDC glioblastomas, 653999-131-R-J2-PDC, LG0703-F948-PDC, and 349418-098-R-PDC non-small cell lung carcinomas, 885512-296-R-J2-PDC, 171881-019-R-J1-PDC breast carcinomas and 186277-243-T-J2-PDC and 233499-124-R-J2-PDC colon carcinomas were obtained from the NCI Patient-Derived Models Repository (PDMR, https://pdmr.cancer.gov). The established cell lines NCI/ADR-RES (RRID:CVCL_14520 and OVCAR-5 (RRID:CVCL_1628) ovarian carcinomas, 786-O (RRID:CVCL_1051) and A498 (RRID:CVCL_A498) renal cell carcinoma, NCI-H211 (ATCC, cat. CRL-5824; RRID:CVCL_1529), NCI-H196 (ATCC, cat. CRL-5823, RRID:CVCL_1509), SW 1271 (ATCC, cat. CRL-2177, RRID:CVCL_1716) and NCI-H1876 (ATCC, cat. CRL-5902, RRID:CVCL_1503) small cell lung carcinomas, MDA-MB-231 (RRID:CVCL_0062) and MDA-MB-468 (RRID:CVCL_0419)breast carcinomas (10-12). Pooled donor human umbilical vein endothelial cells (HUVEC, Lonza, cat. CC-2519) and human mesenchymal stem cells (hMSC, Lonza, cat. PT-2501) were purchased from Lonza (Walkersville, MD).
Cell Culture. All cells were maintained in an incubator at 37 degrees C and 5% CO2 with 95% humidity. The PDC lines were cultured according to standard operating procedures established by the NCI PDMR (https://pdmr.cancer.gov). Briefly all PDCs were thawed and cultured in Matrigel-coated flasks prepared with a working solution of 1X Ham's F-12 nutrient mix, without supplementation (Invitrogen, Waltham, MA, cat. 11765054), 100 U/mL penicillin-streptomycin (Invitrogen, cat. 15140122), and 2.5% Matrigel (Corning Inc., Corning, NY, cat. 354248) for the first three passages. […]

“And” between values parts separate entries of the source, which are not always exact repeats. Identical values can stand only once.

For the compound `CC(C)c1c(-c2ccccc2)nc2c(C#N)c[nH]n2c1=O`, the viability, T/C was 107% and 96.4% (compound 0.0316 µM); 108% and 100% (compound 0.1 µM); 98.3% and 93.8% (compound 0.316 µM); 101% and 91% (compound 1 µM); 99.7% and 94.1% (compound 3.16 µM); 88.7% and 84.2% (compound 10 µM). In addition, under “curve of compound”, the IC50 was > 10 µM.

`CC1COCCN1c1cc(C2(S(C)(=N)=O)CC2)nc(-c2ccnc3[nH]ccc23)n1` (centres undefined): the viability, T/C is, setting by setting: (compound 0.0316 µM) 96.2% and 97.2%; (compound 0.1 µM) 100% and 94.8%; (compound 0.316 µM) 91.8% and 98.8%; (compound 1 µM) 84.6% and 84.2%; (compound 3.16 µM) 77.8% and 76.2%; (compound 10 µM) 72.7% and 74.6%. In addition, the IC50 (curve of compound) is > 10 µM.

Turning to `COc1ccc([C@@H](O)c2cc(-c3ncnc4cc(N5CCOCC5)ccc34)c(F)cc2Cl)nn1`, the viability, T/C reads like this: (compound 0.0316 µM) 97.9% and 93.4%; (compound 0.1 µM) 100% and 90.9%; (compound 0.316 µM) 90.4% and 84.7%; (compound 1 µM) 86.4% and 85.7%; (compound 3.16 µM) 83.8% and 73.6%; (compound 10 µM) 57.7% and 53.2%. The 50% inhibitory concentration (IC50) (curve of compound) was > 10 µM.

As to `NC1CC1c1ccc(-c2cccc(O)c2)cc1` (centres undefined), the viability, T/C by setting is: (compound 0.316 µM) 95.9% [middle of 25 runs]; (compound 1 µM) 97.8% [middle of 25 runs]. The IC50 (compound alone, run of 02/21/2022) is > 10 µM.

In the case of `NC1CCC(NC2CC2c2ccccc2)CC1` (centres undefined), the viability, T/C (compound 0.316 µM) was 93.8% and 93%; the viability, T/C (compound 1 µM) is 96.9% [middle of 25 runs]; the viability, T/C (compound 3.16 µM) is 97.9% [middle of 25 runs]; the viability, T/C (compound 10 µM) was 97.5% [middle of 23 runs]. Besides, for the setting “compound alone, run of 02/15/2022”, the IC50 is > 10 µM.

With `Nc1ncn(C2CC(O)C(CO)O2)c(=O)n1` (centres undefined) + NC1CC1c1ccc(-c2cccc(O)c2)cc1, the IC50 was > 1 µM (curve of first compound, second compound 0.1 µM); > 1 µM (curve of first compound, second compound 0.316 µM); > 1 µM (curve of first compound, second compound 1 µM); > 1 µM (curve of first compound, second compound 3.16 µM); > 1 µM (curve of first compound, second compound 10 µM). Also, the viability, T/C by setting is: (second compound 0.1 µM, first compound 0.00316 µM) 98.6%; (second compound 0.1 µM, first compound 0.01 µM) 99.9%; (second compound 0.1 µM, first compound 0.0316 µM) 99.7%; (second compound 0.1 µM, first compound 0.1 µM) 87.9%; (second compound 0.1 µM, first compound 0.316 µM) 99.5%; (second compound 0.1 µM, first compound 1 µM) 97.9%. Also, the viability, T/C was 97.5% (second compound 0.316 µM, first compound 0.00316 µM); 95.6% (second compound 0.316 µM, first compound 0.01 µM); 98.9% (second compound 0.316 µM, first compound 0.0316 µM); 89% (second compound 0.316 µM, first compound 0.1 µM); 94.2% (second compound 0.316 µM, first compound 0.316 µM); 97% (second compound 0.316 µM, first compound 1 µM). Also, the viability, T/C (second compound 1 µM, first compound 0.00316 µM) was 98.4%; the viability, T/C (second compound 1 µM, first compound 0.01 µM) is 100%; the viability, T/C (second compound 1 µM, first compound 0.0316 µM) is 98.7%; the viability, T/C (second compound 1 µM, first compound 0.1 µM) is 91.2%; the viability, T/C (second compound 1 µM, first compound 0.316 µM) is 96.4%; the viability, T/C (second compound 1 µM, first compound 1 µM) was 97.7%. Besides, the viability, T/C was 96.4% (second compound 3.16 µM, first compound 0.00316 µM); 95% (second compound 3.16 µM, first compound 0.01 µM); 98.1% (second compound 3.16 µM, first compound 0.0316 µM); 88.9% (second compound 3.16 µM, first compound 0.1 µM); 106% (second compound 3.16 µM, first compound 0.316 µM); 95.9% (second compound 3.16 µM, first compound 1 µM). Also, the viability, T/C reads like this: (second compound 10 µM, first compound 0.00316 µM) 105%; (second compound 10 µM, first compound 0.01 µM) 106%; (second compound 10 µM, first compound 0.0316 µM) 96.3%; (second compound 10 µM, first compound 0.1 µM) 98.4%; (second compound 10 µM, first compound 0.316 µM) 95.4%; (second compound 10 µM, first compound 1 µM) 95.2%.
